From PubChem BioAssay AID192 (DTP/NCI, 2004) come the findings set out here.

SMILES strings stand for the structures. “And” between values parts separate entries of the source, which are not always exact repeats. Identical values can stand only once. Inconclusive results and toxic doses are left out. Peptide text beside a SMILES is read from it. * marks the point of attachment. Cbz = O=C(OCc1ccccc1)*

This test concerns BDF1 mice, B16 melanoma ip, median survival T/C. Put plainly: NCI In Vivo Anticancer Drug Screen. Data for tumor model B16 Melanoma (intraperitoneal) in B6D2F1 (BDF1) mice. The note with it: endpoint: median survival time, higher = longer survival. A digest of the protocol: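 Each result divides a survival or tumor-size measurement in the compound-treated group by the same measurement in the vehicle group.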

[1] abbreviates: dose: 0.5 mg/kg/injection, schedule: Q01DX009 (ip), vehicle: saline + alcohol.
Setting [2] is: dose: 1.0 mg/kg/injection, schedule: Q01DX009 (ip), vehicle: saline + alcohol.
[3] abbreviates: dose: 2.0 mg/kg/injection, schedule: Q01DX009 (ip), vehicle: saline + alcohol.
[4] abbreviates: dose: 4.0 mg/kg/injection, schedule: Q01DX009 (ip), vehicle: saline + alcohol.
Where [5] appears, read: dose: 6.25 mg/kg/injection, schedule: Q01DX009 (ip), vehicle: saline with Tween-80.
Where [6] appears, read: dose: 12.5 mg/kg/injection, schedule: Q01DX009 (ip), vehicle: saline with Tween-80.
The mark [7] stands for this setting: dose: 25.0 mg/kg/injection, schedule: Q01DX009 (ip), vehicle: saline with Tween-80.
The mark [8] stands for this setting: dose: 50.0 mg/kg/injection, schedule: Q01DX009 (ip), vehicle: saline with Tween-80.
[9] abbreviates: dose: 100.0 mg/kg/injection, schedule: Q01DX009 (ip), vehicle: saline with Tween-80.
[10] abbreviates: dose: 200.0 mg/kg/injection, schedule: Q01DX009 (ip), vehicle: saline with Tween-80.

With `CC1CCC(NC(=O)N(CCCl)N=O)CC1` (configuration not stated), the T/C by setting is: (dose: 0.5 mg/kg/injection, schedule: Q01DX009 (ip), vehicle: other) 104 % of control; under setting [1], 95 % of control; (dose: 1.0 mg/kg/injection, schedule: Q01DX009 (ip), vehicle: other) 112 % of control; under setting [2], 113 % of control; (dose: 1.9 mg/kg/injection, schedule: Q01DX001 (ip), vehicle: saline) 106 % of control; (dose: 2.0 mg/kg/injection, schedule: Q01DX009 (ip), vehicle: distilled water + Tween-80 + alcohol) 103 % of control. Besides, the T/C is, setting by setting: (dose: 2.0 mg/kg/injection, schedule: Q01DX009 (ip), vehicle: other) 111 % of control; under setting [3], 118 % of control; (dose: 2.5 mg/kg/injection, schedule: Q04DX003 (ip), vehicle: other) 109 % of control; (dose: 3.75 mg/kg/injection, schedule: Q01DX001 (ip), vehicle: saline) 117 % of control; (dose: 3.75 mg/kg/injection, schedule: Q04DX003 (ip), vehicle: other) 112 % of control and 123 % of control; (dose: 4.0 mg/kg/injection, schedule: Q01DX009 (ip), vehicle: distilled water + Tween-80 + alcohol) 108 % of control. Besides, the T/C is 150 % of control under setting [4]; 124 % of control (dose: 5.0 mg/kg/injection, schedule: Q04DX003 (ip), vehicle: other); 212 % of control (dose: 7.5 mg/kg/injection, schedule: Q04DX003 (ip), vehicle: other); 184 % of control (dose: 8.0 mg/kg/injection, schedule: Q01DX009 (ip), vehicle: distilled water + Tween-80 + alcohol); 200 % of control (dose: 8.0 mg/kg/injection, schedule: Q01DX009 (ip), vehicle: other); 72 % of control (dose: 8.0 mg/kg/injection, schedule: Q01DX009 (ip), vehicle: saline + alcohol). For the same molecule, the T/C (dose: 9.0 mg/kg/injection, schedule: Q04DX002 (ip), vehicle: Klucel (hydroxypropylcellulose) (HPC)) was 121 % of control; the T/C (dose: 10.0 mg/kg/injection, schedule: Q04DX003 (ip), vehicle: other) was 189 % of control; the T/C (dose: 15.0 mg/kg/injection, schedule: Q04DX002 (ip), vehicle: Klucel (hydroxypropylcellulose) (HPC)) was 150 % of control; the T/C (dose: 15.0 mg/kg/injection, schedule: Q04DX003 (ip), vehicle: other) is 94 % of control and 272 % of control; the T/C (dose: 16.0 mg/kg/injection, schedule: Q01DX009 (ip), vehicle: distilled water + Tween-80 + alcohol) is 51 % of control; the T/C (dose: 16.0 mg/kg/injection, schedule: Q01DX009 (ip), vehicle: other) is 50 % of control. Besides, the T/C (dose: 16.0 mg/kg/injection, schedule: Q01DX009 (ip), vehicle: saline + alcohol) is 45 % of control; the T/C (dose: 20.0 mg/kg/injection, schedule: Q04DX003 (ip), vehicle: other) is 263 % of control; the T/C (dose: 24.0 mg/kg/injection, schedule: Q01DX001 (ip), vehicle: distilled water + Tween-80 + alcohol) is 161 % of control; the T/C (dose: 25.0 mg/kg/injection, schedule: Q04DX002 (ip), vehicle: Klucel (hydroxypropylcellulose) (HPC)) is 196 % of control; the T/C (dose: 30.0 mg/kg/injection, schedule: Q04DX003 (ip), vehicle: other) is 50 % of control and 55 % of control; the T/C (dose: 32.0 mg/kg/injection, schedule: Q01DX009 (ip), vehicle: other) was 37 % of control. Also, the T/C runs as follows: (dose: 32.0 mg/kg/injection, schedule: Q01DX009 (ip), vehicle: saline + alcohol) 31 % of control; (dose: 40.0 mg/kg/injection, schedule: Q01DX001 (ip), vehicle: distilled water + Tween-80 + alcohol) 182 % of control; (dose: 42.0 mg/kg/injection, schedule: Q04DX002 (ip), vehicle: Klucel (hydroxypropylcellulose) (HPC)) 213 % of control; (dose: 64.0 mg/kg/injection, schedule: Q01DX009 (ip), vehicle: other) 27 % of control; (dose: 64.0 mg/kg/injection, schedule: Q01DX009 (ip), vehicle: saline + alcohol) 26 % of control; (dose: 66.7 mg/kg/injection, schedule: Q01DX001 (ip), vehicle: distilled water + Tween-80 + alcohol) 63 % of control.

Regarding `CC(C)(CN=Cc1ccccc1[O-])N=Cc1ccccc1[O-].[O]=[V]`, the T/C was 95 % of control under setting [5]; 113 % of control (dose: 6.25 mg/kg/injection, schedule: Q04DX003 (ip), vehicle: saline with Tween-80); 95 % of control under setting [6]; 91 % of control (dose: 12.5 mg/kg/injection, schedule: Q04DX003 (ip), vehicle: saline with Tween-80); 92 % of control under setting [7]; 104 % of control (dose: 25.0 mg/kg/injection, schedule: Q04DX003 (ip), vehicle: saline with Tween-80).

Turning to `CCCCCCCCCCCCO[P+](=O)OCCCCCCCCCCCC`, the T/C (dose: 100.0 mg/kg/injection, schedule: Q01DX009 (ip), vehicle: saline) is 88 % of control.

In the case of `CCCSc1ncnc2nc[nH]c12`, the T/C under setting [6] is 102 % of control; the T/C under setting [7] is 102 % of control; the T/C under setting [8] was 97 % of control and 115 % of control; the T/C under setting [9] was 107 % of control.

In the case of `C=CCC(OC(=O)c1ccc(Br)cc1)C1(C)OC1C(C)C1CC(O)(C(OC)OC)NC(=O)O1` (configuration not stated), the T/C by setting is: (dose: 0.25 mg/kg/injection, schedule: Q01DX009 (ip), vehicle: saline + alcohol) 100 % of control; under setting [1], 103 % of control; under setting [2], 93 % of control; under setting [3], 98 % of control; under setting [4], 90 % of control.

Regarding `CCC1CC(O)c2c(O)c3c(c(O)c2C1O)C(=O)c1cccc(O)c1C3=O` (configuration not stated) (tested in a mixture with another compound), the T/C is, setting by setting: (dose: 0.01 mg/kg/injection, schedule: Q01DX009 (ip), vehicle: saline) 95 % of control; (dose: 0.03 mg/kg/injection, schedule: Q01DX009 (ip), vehicle: saline) 86 % of control; (dose: 0.06 mg/kg/injection, schedule: Q04DX003 (ip), vehicle: saline) 102 % of control; (dose: 0.12 mg/kg/injection, schedule: Q04DX003 (ip), vehicle: saline) 109 % of control; (dose: 15.0 micrograms/kg/injection, schedule: Q01DX009 (ip), vehicle: saline) 119 % of control.

With `CCCCOC(=O)c1ccc(NC(=O)Nc2ccccc2OC)cc1`, the T/C reads like this: under setting [6], 93 % of control; under setting [7], 100 % of control; under setting [8], 98 % of control.

In the case of `O=C(NC(Cc1ccccc1)C(=O)N1CCCC1C(=O)O)OCc1ccccc1` (stereo not drawn) (Cbz-Phe-Pro-OH; configuration not given here), the T/C under setting [8] is 99 % of control, the T/C under setting [9] was 99 % of control and the T/C under setting [10] was 91 % of control.

As to `C(=NC1CCCCC1)c1c[nH]c2ccccc12`, the T/C was 100 % of control under setting [8], 97 % of control under setting [9] and 97 % of control under setting [10].

In the case of `COC(=O)C(Cc1c[nH]c2ccccc12)NC(=O)C(NC(=O)OC(C)(C)C)C(C)C` (configuration not stated), the T/C (dose: 50.0 mg/kg/injection, schedule: Q01DX009 (ip), vehicle: Klucel (hydroxypropylcellulose) (HPC)) is 91 % of control.

`N#[N+]c1c(O)cc(S(=O)(=O)O)c2ccccc12`: the T/C reads like this: (dose: 100.0 mg/kg/injection, schedule: Q04DX003 (ip), vehicle: saline) 95 % of control; (dose: 200.0 mg/kg/injection, schedule: Q04DX003 (ip), vehicle: saline) 93 % of control; (dose: 400.0 mg/kg/injection, schedule: Q04DX003 (ip), vehicle: saline) 90 % of control.

Consider `CCC/C=C(/CC(=O)O)C(=O)O`, for which the T/C (dose: 75.0 mg/kg/injection, schedule: Q04DX003 (ip), vehicle: saline with Tween-80) was 100 % of control.

With `CCN(C(=O)Nc1ccccc1)c1ccccc1C`, the T/C is, setting by setting: under setting [5], 100 % of control; under setting [6], 88 % of control; under setting [7], 94 % of control.

`CC(Oc1ccccc1)C(=O)c1ccccc1` (configuration not stated): the T/C reads like this: under setting [9], 90 % of control; under setting [10], 90 % of control; (dose: 400.0 mg/kg/injection, schedule: Q01DX009 (ip), vehicle: saline with Tween-80) 93 % of control.
